Patent US20070014721A1, “Hydrazide conjugates as imaging agents” (priority 2005, published 2007)

Columns and labels:
[1] = tested on: aorta of apolipoprotein E (apoE) knockout mouse; assay: In vivo ApoE mouse aorta uptake study; details: 60 min postinjection; for Aorta (% ID/g): ApoE mouse on high-fat diet 37-41 weeks, tail vein bolus; for Aorta/Blood Ratio: ApoE mouse, calculated from the % ID/g data
Protocol: Mice were fed a high-fat diet to accelerate plaque formation and compounds were tested in the mice between 37-41 weeks on diet. Test compounds were radiolabeled (^14C, ^99mTc, or ^111In as described above) and administered at 0.02-4.0 mCi/kg to anesthetized mice in a single, bolus injection via the tail vein. Blood samples were collected via the tail between 0-30 minutes postinjection for pharmacokinetic analysis and mice were euthanized by CO2 at 60 minutes for tissue harvesting. The aorta were flushed with saline through the left ventricle exiting via the femoral vein. The aorta were then removed from the heart to the renal bifurcation and additional tissue samples collected (blood, muscle, liver, kidney, heart, lung, spleen and innominate artery). All samples were weighed and assayed for radioactivity. Tissue uptake is expressed as percent of injected dose per gram of tissue (% ID/g). The aorta to blood ratios were calculated from the % ID/g data.

[2] = tested on: Rabbit plaque aorta or normal rabbit aorta; assay: Ex vivo blood vessel binding assay; design: species or system New Zealand white rabbits; details: radiolabeled compound incubated with rabbit aorta (0.5 cm) in phosphate buffered saline for 2 hours at 37° C; bound compound as percentage of the incubated compound
From the text: Normal aorta was obtained from New Zealand white rabbits. Aorta bearing atherosclerotic plaque was obtained from New Zealand white rabbits balloon stripped along the abdominal aorta and placed on a high fat diet (0.5% cholesterol) for 16-22 weeks. Vascular injury was produced with a 3-F Fogarty catheter along the abdominal aorta and left iliofemoral artery. This procedure generates an accelerated complex lesion development with a lipid rich core covered by a fibrous cap in rabbits. Rabbit plaque aorta or normal rabbit aorta (0.5 cm) was incubated with 10 nCi of ^14C labeled compound or 1.5 μCi of ^99m Tc labeled compound or 0.135 μCi of ^111In labeled compound or 0.135 μCi of ^68Ga labeled compound or 0.135 µCi of ^153Gd labeled compound diluted in phosphate buffered saline (450 μL) for 2 hours at 37° C. The supernatant from this sample was collected and analyzed by HPLC to determine compound stability in presence of blood vessels. The blood vessel tissue was then washed with phosphate buffered saline (3×10 mL). Phosphate buffered saline (10 ml) was added to the tissue and incubated at 37° C. for 1 hour. The tissue was then washed with phosphate buffered saline (3×10 mL). The washed tissue was oxidized in a tissue oxidizer for C-14 labeled compounds. The counts in the oxidized tissue were determined on a beta counter. Blood vessels incubated with ^99m Tc labeled compound or ^111In labeled compound or ^68Ga labeled compound or ^153Gd labeled compound were counted on a gamma counter. The amount of compound bound to the tissue was determined as a percentage of the incubated compound. This was calculated using the following formula: [formula]

Compound | Aorta (% ID/g) [1] [% ID/g] | Aorta/Blood Ratio [1] | Tissue Binding % [2] [%]
Boc-d-Leu-Apah-H [Example 121] | 9.3 | 4.6 | 30.55
Boc-d-Glu(tBu)-Ahxh-H [Example 132] |  |  | 2.47
H-d-Phe(4-NHBz)-Ambh-DTPA [Example 205] | 7.8 | 6.3 | 8.83
H-Pro-Ahxh-DTPA [Example 163] | 6.5 | 0.9 | 2.61
H-Aic-Ambh-DTPA [Example 207] | 3.8 | 2.1 | 5.26
H-d-Phe-NHNH-DTPA [Example 192] | 2.3 | 1.9 | 1.78
H-d-Nle-Ahxh-DTPA [Example 200] | 5.1 | 2.2 | 2.72
H-d-Trp-Apph-ETPA [Example 184] | 12.5 | 11.3 | 13.08
Boc-Leu-PABA-CO-d-Leu-Ahxh-H [Example 127] |  |  | 24.22
H-d-Hphe-Ambh-Ahx-DTPA [Example 211] | 9.9 | 3.9 | 18.09
H-d-H2phe-Ambh-DTPA [Example 185] | 11.2 | 8.1 | 10.64
H-d-Hphe-Ahxh-DTPA [Example 168] | 7.5 | 5.8 | 9.17
H-d-Bip-Ahxh-DTPA [Example 175] | 7.9 | 5.9 | 32.09
H-d-Hphe-mAmbh-DTPA [Example 210] | 10.5 | 11.2 | 13.13
H-d-Phe-XInph-DTPA [Example 202] | 4.3 | 4.0 | 5.44
CC(C)C[C@@H](NC(=O)OC(C)(C)C)C(=O)NCC(=O)NCCCCN [Example 140, Boc-d-Leu-Gly-NH-Butyl-NH2] | 1.3 | 0.8 | 0.52
H-d-Tyr(Bzl)-Ambh-DTPA [Example 206] | 5.8 | 3.2 | 19.62
H-d-Leu-NHNH-DTPA [Example 189] | 3.3 | 1.0 | 1.08
H-d-Phe-Inph-DTPA [Example 199] |  |  | 3.36
Boc-L-d-Leu-Ahxh-H [Example 150] | 2.1 | 1.2 | 5.36
H-d-Tyr(Et)-Apah-DTPA [Example 169] | 6.1 | 5.1 | 13.53
H-d-Cha-Ahxh-DTPA [Example 194] | 6.8 | 3.3 | 16.33
H-d-Tic-Apah-DTPA [Example 178] | 8.3 | 4.2 | 6.00
H-d-Val-Ambh-DTPA [Example 198] |  |  | 5.26
Boc-cLeu-Ahxh-H [Example 133] | 5.7 | 2.9 | 9.10
H-d-His-Ahxh-DTPA [Example 172] | 3.7 | 1.2 | 4.22
Boc-d-Leu-NHNH—CO-(PEG)4-NH2 [Example 123] |  |  | 9.74

Compound | Aorta (% ID/g) [1] [% ID/g] | Aorta/Blood Ratio [1] | Tissue Binding % [2] [%]
H-d-Hphe-Pheh-AEEA-DTPA [Example 213] | 8.4 | 9.8 | 26.68
H-d-Cha-Apah-DTPA [Example 170] | 7.0 | 5.4 | 7.55
H-d-Cha-Ambh-DTPA [Example 196] | 9.8 | 7.8 | 8.25
H-d-Phe-Ambh-DTPA [Example 161] | 8.7 | 4.9 | 7.75
H-d-Phe-Bbh-DTPA [Example 209] | 10.8 | 9.6 | 20.9
Boc-βLeu-Ahxh-H [Example 135] |  |  | 2.30
H-d-Ser(Bzl)-Ahxh-DTPA [Example 166] | 4.0 | 3.3 | 5.91
[H-d-Cys(Bzl)-Apph]2EDTA[APEEPA-DTPA]2 [Example 186] | 7.0 | 1.5 | 7.78
Boc-d-Arg(Pmc)-Ahxh-H [Example 131] |  |  | 5.19
N,N-Me2-d-Leu-Ahxh-H [Example 125] |  |  | 4.63
H-d-Leu-Apah-DOTA [Example 160] |  |  | 9.59
H-d-Cha-Inph-DTPA [Example 197] |  |  | 6.97
H-d-2-Nal-Ambh-DTPA [Example 212] | 12.6 | 10.8 | 18.78
H-Ahxh-d-Leu-Boc [Example 137] |  |  | 1.43
Boc-d-Leu-Ambh-H [Example 138] | 8.6 | 6.7 | 21.11
H-d-Cys(Bzl)-Apph-DTPA [Example 181] | 9.8 | 7.3 | 13.91
H-d-Cys(Bzl)-Apah-DTPA [Example 173] | 9.5 | 5.8 | 13.82
H-cLeu-Ahxh-DTPA [Example 188] | 2.8 | 2.2 | 3.91
Boc-d-Phe-Ahxh-H [Example 129] | 8.1 | 3.3 | 14.42
H-d-Phe(CF3)-Apah-DTPA [Example 177] | 7.9 | 8.7 | 13.53
H-d-Cys(Bzl)-Ambh-DTPA [Example 179] |  |  | 9.67
Boc-d-Ala-Ahxh-H [Example 134] |  |  | 5.72
Boc-d-Leu-N(Me)-NH-Ahx-H [Example 141] |  |  | 0.75
H-d-Pro-Ahxh-DTPA [Example 165] |  |  | 5.51
CC(C)CC(NC(=O)OC(C)(C)C)C(=O)NNC(=O)NN (stereo not drawn) [Example 124, Boc-d-Leu-NHNH—CO—NHNH2] |  |  | 5.85
Boc-d-Lys(e-Leu(Boc))-Ahxh-H [Example 136] |  |  | 9.15
Boc-Aib-Ahxh-H [Example 130] |  |  | 3.33
